Results on seven compounds are retold here after ChEMBL document CHEMBL1157412, “Cytotoxic alkaloids and antibiotic nordammarane triterpenoids from the marine-derived fungus Aspergillus sydowi” (J Nat Prod, 2008).

A word on the IC50: it is the point on the concentration scale where inhibition reaches its midpoint. A lower IC50 goes with higher potency. As usually defined, the MIC is the least concentration at which growth counts as inhibited.

Converted amounts (≈) assume the structure as drawn.

The subject of test [1] is A549. The test can be described thus: Cytotoxicity against human A549 cells after 72 hrs by MTT assay. The conditions noted are these: A549, 72 h. It is filed as functional, cell-based. For orientation: Tetrazolium assays rely on reduction of a dye to a coloured formazan, in cell work by metabolically active cells.
For test [2], the system named is Bacillus subtilis. The test can be described thus: Antimicrobial activity against Bacillus subtilis after 24 hrs by disk diffusion method. It is filed as functional. On the technique in general: A growth-free zone around the sample is the usual read-out of agar diffusion tests.
Test [3] concerns Micrococcus luteus. As to the kind of experiment: Antimicrobial activity against Micrococcus lysodeikticus after 24 hrs by disk diffusion method. The format is functional.
The test system of test [4] is Escherichia coli. As to the kind of experiment: Antimicrobial activity against Escherichia coli after 24 hrs by disk diffusion method. The format is functional.
In test [5] the test system is HL-60. The test can be described thus: Cytotoxicity against human HL60 cells after 72 hrs by MTT assay. It is filed as functional, cell-based. Conditions: HL-60, 72 h.

Turning to `CC(C)=CCc1cccc2c(C[C@H]3C(=O)N[C@@H](C)C(=O)N3O)c[nH]c12`, the 50% inhibitory concentration (IC50) in test [1] was found to be 7.31 µM.
Regarding `CC(=O)O[C@H]1C[C@@]2(C)[C@@H](CC[C@H]3[C@@]4(C)C=CC(=O)[C@@H](C)[C@@H]4[C@H](OC(C)=O)C(=O)[C@@]32C)/C1=C(\CCCC(C)(C)O)C(=O)O`, the results for the minimum inhibitory concentration (MIC) in test [2], in test [3] and in test [4] were 5.33 µM (≈ 3.13 µg/mL), 10.7 µM (≈ 6.25 µg/mL) and 10.7 µM (≈ 6.25 µg/mL), respectively.
Turning to `C/C=C\[C@H](O)[C@H](O)C1=C(C)C(=O)[C@]2(O1)C(=O)N[C@@](OC)(C(=O)c1ccccc1)[C@@H]2O` [14-NORPSEUROTIN A], the MIC was found to be 15 µM (≈ 6.25 µg/mL) in test [2], 7.49 µM (≈ 3.13 µg/mL) in test [3] and 3.74 µM (≈ 1.56 µg/mL) in test [4].
The compound `COc1ccc2c(C[C@@H]3NC(=O)[C@@H]4CCCN4C3=O)c(C(=O)C=C(C)C)[nH]c2c1` [18-OXOTRYPROSTATIN A] had an IC50 in test [1] of 1.28 µM.
For `CC(=O)O[C@H]1C[C@@]2(C)[C@@H](CC[C@H]3[C@@]4(C)C=CC(=O)[C@@H](C)[C@@H]4[C@H](OC(C)=O)C(=O)[C@@]32C)/C1=C(\CCC=C(C)C)C(=O)O` [HELVOLIC ACID], the values for the MIC in test [2], in test [3] and in test [4] were 22 µM (≈ 12.5 µg/mL), 11 µM (≈ 6.25 µg/mL) and 87.9 µM (≈ 50 µg/mL), respectively.
For `CC/C=C\[C@H](O)[C@H](O)C1=C(C)C(=O)[C@]2(O1)C(=O)N[C@@](OC)(C(=O)c1ccccc1)[C@@H]2O` [PSEUROTIN A] the same measures were 14.5 µM (≈ 6.25 µg/mL), 7.42 µM (≈ 3.2 µg/mL) and 14.5 µM (≈ 6.25 µg/mL).
Regarding `COc1ccc2c(c1)NC(=O)[C@@]21C=C2C(=O)N3CCC[C@H]3C(=O)N2[C@H]1C=C(C)C` [SPIROTRYPROSTATIN B], the IC50 in test [5] came out at 9.71 µM; in test [1] it was 8.29 µM.
